This is an account of results in patent US20260071117A1, “FUNABLE FLUORESCENT COMPOUNDS AND USES THEREOF” (Arizona Board of Regents on Behalf of the University of …, priority 2021, published 2026).

This data set can be described thus: Absorbance and fluorescence measurements (excitation maximum, emission maximum, quantum yield vs coumarin 151). Format: physicochemical. Set-up: key to Quantum Yield: fraction relative to coumarin 151 in ethanol standard. As to conditions: for λex: absorbance/excitation maximum; for λem: emission maximum. The source says:
All reagents and solvents were acquired from commercially available suppliers and used without further purification. Methanol(dried on molecular sieves-Acroseal) was obtained from Acros. […] 1H and 13C NMR spectra were obtained on a Bruker NMR spectrometer at 500/400 and 125/100 MHz respectively. The data is reported as follows: chemical shift in ppm (δ), multiplicity (s=singlet, d=doublet, dd=doublet of doublets, t=triplet, dt=doublet of triplets, td=triplet of doublets, q=quartet, p=pentet, m=multiplet). Coupling constants are reported in Hertz (Hz) and were automatically generated using known NMR analyzer software (MestReNova), these were then subsequently curated. High-resolution mass spectra were obtained using the positive ESI method for all the compounds, obtained in an Ion Cyclotron Resonance (ICR) spectrometer. Absorbance spectra were obtained using an Agilent 8453 UV-visible spectroscopy system. Fluorescence was measured on a Varian (Agilent) Cary Eclipse Fluorimeter. Quantum yield measurements were calculated and reported using coumarin 151 in ethanol as a standard.^1 Fluorescence scans were obtained using a 2.5 mm slit width unless otherwise noted.
The fluorescence was also measured in different solvents to examine the solvent effects.

The mark [1] stands for this setting: coumarin 151 in ethanol as standard, 2.5 mm slit width, measurements run with methanol.
Setting [2] is: 2.5 mm slit width, measurements run with methanol.

On to `Nc1c(-c2ccccc2)nc2ccccn12` [Compound 10f, 2-phenylimidazo[1,2-a]pyridin-3-amine], for which the λex (measurements run with methanol) stood at 339 nm. Also, the “Quantum Yield” value under setting [1] was determined as 0.30. Under setting [2], this molecule gave a λem of 473 nm.

For the setting “measurements run with methanol”, `COc1ccc(-c2nc3ccccn3c2N)cc1` [Compound 10g, 2-(4-methoxyphenyl)imidazo[1,2-a]pyridin-3-amine] yielded a λex of 340 nm. Besides, the “Quantum Yield” value under setting [1] amounted to 0.39. Moreover, the λem under setting [2] is given as 472 nm.

In turn, `Nc1c(-c2ccccn2)nc2ccccn12` [Compound 10h, 2-(pyridin-2-yl)imidazo[1,2-a]pyridin-3-amine] came in with a λex (measurements run with methanol) of 370 nm.

Where the note is “measurements run with methanol”, `Nc1c(-c2ccccc2[N+](=O)[O-])nc2ccccn12` [Compound 10i, 2-(2-nitrophenyl)imidazo[1,2-a]pyridin-3-amine] showed a λex of 330 nm.

For `Nc1c(-c2cccc([N+](=O)[O-])c2)nc2ccccn12` [Compound 10j, 2-(3-nitrophenyl)imidazo[1,2-a]pyridin-3-amine], the λex (measurements run with methanol) is 350 nm.

Consider `Nc1c(-c2ccc([N+](=O)[O-])cc2)nc2ccccn12` [Compound 10k, 2-(4-nitrophenyl)imidazo[1,2-a]pyridin-3-amine], for which the “fluorescence (observation in words)” value is “did not show any observable fluorescence intensity”. Under “measurements run with methanol”, this molecule returned a λex of 304 nm.

As to `Nc1c(-c2ccc(Oc3ccccc3)cc2)nc2ccccn12` [Compound 10m, 2-(4-phenoxyphenyl)imidazo[1,2-a]pyridin-3-amine], the λex (measurements run with methanol) came to 343 nm. Further, the “Quantum Yield” value under setting [1] came out at 0.40. Moreover, the λem under setting [2] is 474 nm.

In the case of `Nc1c(-c2cccc(Oc3ccccc3)c2)nc2ccccn12` [Compound 10n, 2-(3-phenoxyphenyl)imidazo[1,2-a]pyridin-3-amine], the λex (measurements run with methanol) stood at 339 nm. Moreover, the “Quantum Yield” value under setting [1] stood at 0.40. Besides, the λem under setting [2] turned out to be 474 nm.

`Cn1cccc1-c1nc2ccccn2c1N` [Compound 10o, 2-(1-methyl-1H-pyrrol-2-yl)imidazo[1,2-a]pyridin-3-amine] returned a λex (measurements run with methanol) of 349 nm. Moreover, the “Quantum Yield” value under setting [1] is 0.20. The λem under setting [2] turned out to be 478 nm.

In turn, `Nc1c(-c2ccc(N(c3ccccc3)c3ccccc3)cc2)nc2ccccn12` [Compound 10p, 2-(4-(diphenylamino)phenyl)imidazo[1,2-a]pyridin-3-amine] had a λex (measurements run with methanol) of 353 nm. Moreover, the “Quantum Yield” value under setting [1] was found to be 0.34. The λem under setting [2] is reported as 471 nm.

On to `CCN(CC)c1ccc(-c2nc3ccccn3c2N)cc1` [Compound 10q, 2-(4-(diethylamino)phenyl)imidazo[1,2-a]pyridin-3-amine], for which the λex (measurements run with methanol) is recorded as 341 nm. In addition, the “Quantum Yield” value under setting [1] is reported as 0.12. This molecule had a λem under setting [2] of 486 nm.

Consider `COc1cc(OC)cc(-c2nc3ncccn3c2N)c1` [Compound 10r, 2-(3,5-dimethoxyphenyl)imidazo[1,2-a]pyrimidin-3-amine], for which the λex (measurements run with methanol) worked out at 371 nm. The “Quantum Yield” value under setting [1] turned out to be 0.02. The same molecule had a λem under setting [2] of 553 nm.

The molecule `COc1cc(OC)cc(-c2nc3cnccn3c2N)c1` [Compound 10s, 2-(3,5-dimethoxyphenyl)imidazo[1,2-a]pyrazin-3-amine] registered a λex (measurements run with methanol) of 382 nm. Also, under setting [1], the “Quantum Yield” value worked out at 0.35. Under setting [2], this molecule yielded a λem of 477 nm.

Consider `COC(=O)c1ccn2c(N)c(-c3cc(OC)cc(OC)c3)nc2c1` [Compound 10v, methyl 3-amino-2-(3,5-dimethoxyphenyl)imidazo[1,2-a]pyridine-7-carboxylate], for which the λex (measurements run with methanol) is on record as 403 nm. Also, the “Quantum Yield” value under setting [1] is 0.42. Besides, the λem under setting [2] is given as 514 nm.

With `COC(=O)c1ccc2nc(-c3cc(OC)cc(OC)c3)c(N)n2c1` [Compound 10w, methyl 3-amino-2-(3,5-dimethoxyphenyl)imidazo[1,2-a]pyridine-6-carboxylate], the λex (measurements run with methanol) is 343 nm. For the same molecule, the “Quantum Yield” value under setting [1] turned out to be 0.02. Moreover, the λem under setting [2] was 473 nm.

Consider `COC(=O)c1cccc2nc(-c3cc(OC)cc(OC)c3)c(N)n12` [Compound 10x, methyl 3-amino-2-(3,5-dimethoxyphenyl)imidazo[1,2-a]pyridine-5-carboxylate], for which the “fluorescence (observation in words)” value is recorded as “quenched fluorescence altogether”. For the same molecule, where the note is “measurements run with methanol”, the λex is listed as 400 nm.

On to `COc1cc(OC)cc(-c2nc3cc(Br)ccn3c2N)c1` [Compound 10y, 7-bromo-2-(3,5-dimethoxyphenyl)imidazo[1,2-a]pyridin-3-amine], for which the λex (measurements run with methanol) was determined as 349 nm. Also, the “Quantum Yield” value under setting [1] was found to be 0.01. Further, under setting [2], the λem stood at 487 nm.

On to `COc1cccc(/C=N/c2c(-c3cccc(OC)c3)c(C#N)c3ccccn23)c1` [Compound 14a, (E)-3-((3-methoxybenzylidene)amino)-2-(3-methoxyphenyl)indolizine-1-carbonitrile], for which the “fluorescence (observation in words)” value was “quenched fluorescence”.

With `COc1cccc(-c2nc3c(nc4ccccn43)c3c(OC)c(OC)ccc23)c1OC` [Compound 16b, 5-(2,3-dimethoxyphenyl)-1,2-dimethoxypyrido[2′,1′:2,3]imidazo[4,5-c]isoquinoline], the λex (measurements run with methanol) is 366 nm. The “Quantum Yield” value under setting [1] turned out to be 0.34. The molecule further gave a λem under setting [2] of 418 nm.

`COc1cc(-c2nc3c(nc4ccccn43)c3cc(OC)c(OC)c(OC)c23)cc(OC)c1OC` [Compound 16c, 2,3,4-trimethoxy-5-(3,4,5-trimethoxyphenyl)pyrido[2′,1′:2,3]imidazo[4,5-c]isoquinoline] displayed a λex (measurements run with methanol) of 367 nm. Further, the “Quantum Yield” value under setting [1] amounted to 0.01. Under setting [2], this molecule registered a λem of 428 nm.

`COc1cc(OC)cc(-c2nc3c(nc4ccccn43)c3cc(OC)cc(OC)c23)c1` [Compound 16d, 5-(3,5-dimethoxyphenyl)-2,4-dimethoxypyrido[2′,1′:2,3]imidazo[4,5-c]isoquinoline] registered a λex (measurements run with methanol) of 364 nm. Besides, the “Quantum Yield” value under setting [1] is given as 0.01. Further, the λem under setting [2] was determined as 415 nm.

Turning to `c1ccc2cc(-c3nc4c(nc5ccccn54)c4ccc5ccccc5c34)ccc2c1` [Compound 16e, 7-(naphthalen-2-yl)benzo[h]pyrido[2′,1′:2,3]imidazo[4,5-c]isoquinoline], the λex (measurements run with methanol) is given as 389 nm. Besides, under setting [1], the “Quantum Yield” value is 0.01. The same molecule came in with a λem under setting [2] of 442 nm.

With `COc1cc(-c2nc3c(nc4cccnn43)c3cc(OC)c(OC)c(OC)c23)cc(OC)c1OC` [Compound 16f, 2,3,4-trimethoxy-5-(3,4,5-trimethoxyphenyl)pyridazino[6′,1′:2,3]imidazo[4,5-c]isoquinoline], for the setting “measurements run with methanol”, the λex is listed as 295 nm. Besides, under setting [1], the “Quantum Yield” value was 0.07. The molecule also gave a λem under setting [2] of 488 nm.

As to `COc1cc(-c2nc3c(nc4ncccn43)c3cc(OC)c(OC)c(OC)c23)cc(OC)c1OC` [Compound 16g, 2,3,4-trimethoxy-5-(3,4,5-trimethoxyphenyl)pyrimido[2′,1′:2,3]imidazo[4,5-c]isoquinoline], for the setting “measurements run with methanol”, the λex is listed as 296 nm. Also, the “Quantum Yield” value under setting [1] was 0.07. For the same molecule, under setting [2], the λem is recorded as 510 nm.

`COc1cc(-c2nc3c(nc4cccc(Br)n43)c3cc(OC)c(OC)c(OC)c23)cc(OC)c1OC` [Compound 16h, 8-bromo-2,3,4-trimethoxy-5-(3,4,5-trimethoxyphenyl)pyrido[2′,1′:2,3]imidazo[4,5-c]isoquinoline] returned a λex (measurements run with methanol) of 265 nm. The “Quantum Yield” value under setting [1] was determined as 0.002. Besides, the λem under setting [2] was determined as 553 nm.

Take `COc1cc(OC)c2c(-c3ccccc3)nc3c(nc4ccccn43)c2c1` [Compound 18a, 2,4-dimethoxy-5-phenylpyrido[2′,1′:2,3]imidazo[4,5-c]isoquinoline]: the “fluorescence (observation in words)” value was “not observable by the naked eye”. Where the note is “measurements run with methanol”, the λex was 365 nm. For the same molecule, under setting [1], the “Quantum Yield” value was 0.01. Also, under setting [2], the λem amounted to 422 nm. For the setting “tetracyclic indolizines of Example I”, this molecule showed a Quantum Yield of 0.01.

For the molecule `COc1cc(OC)c2c(-c3ccc([N+](=O)[O-])cc3)nc3c(nc4ccccn43)c2c1` [Compound 18b, 2,4-dimethoxy-5-(4-nitrophenyl)pyrido[2′,1′:2,3]imidazo[4,5-c]isoquinoline], the “fluorescence (observation in words)” value is “quenched the fluorescence fully”. Further, the λex (measurements run with methanol) came out at 370 nm.

In turn, `COC(=O)c1ccn2c(c1)nc1c3cc(OC)cc(OC)c3c(/C=C/c3ccccc3)nc12` [Compound 18c, methyl (E)-2,4-dimethoxy-5-styrylpyrido[2′,1′:2,3]imidazo[4,5-c]isoquinoline-10-carboxylate] displayed a λex (measurements run with methanol) of 325 nm. Moreover, the “Quantum Yield” value under setting [1] is listed as 0.19. In addition, the λem under setting [2] came to 510 nm.

Take `Cc1nn2c(NC(C)(C)C)c(-c3ccccc3)nc2nc1/C=C/c1ccccc1` [Compound 42, (E)-N-(tert-butyl)-2-methyl-6-phenyl-3-styrylimidazo[1,2-b][1,2,4]triazin-7-amine]: the λex (measurements run with methanol) was found to be 453 nm. Besides, the “Quantum Yield” value under setting [1] was 0.11. The molecule also came in with a λem under setting [2] of 636 nm.

In the case of `Cc1nn2c(NC(C)(C)C)c(-c3ccc4ccccc4c3)nc2nc1/C=C/c1ccc2ccccc2c1` [Compound 43, (E)-N-(tert-butyl)-2-methyl-6-(naphthalen-2-yl)-3-(2-(naphthalen-2-yl)vinyl)imidazo[1,2-b][1,2,4]triazin-7-amine], where the note is “measurements run with methanol”, the λex turned out to be 485 nm. Besides, the “Quantum Yield” value under setting [1] came out at 0.22. Also, the λem under setting [2] came out at 643 nm.
